The record followed here is patent US20250120372A1, “HUMANIZED MOUSE MODEL OF FIBROSIS” (The Jackson Laboratory, priority 2021, published 2025).

Data set [1] deals with NSG-SGM3 BLT mice. To be noted: mouse, in vivo.
Protocol: SLG20 alginate 500 μm diameter spheres (“alginate spheres,” 0.5 ml total implant volume) were implanted into the intraperitoneal (IP) space of pro-fibrotic C57BL/6 mice and various humanized mouse models, retained for 28 days, and analyzed for degree of fibrosis upon alginate sphere retrieval. […] Experiments repeated at least 3 times.
Implanted mice were anesthetized with 3% isoflurane in oxygen and their abdomens were shaved and sterilized using betadine and isopropanol. Preoperatively, all mice received 0.05 mg/kg buprenorphine and 0.2 mL of 0.9% saline SC for pre-surgery analgesia and hydration. A midline incision (0.5 mm) was made and the peritoneal lining was exposed using blunt dissection. The peritoneal wall was then grasped with forceps and a 0.5-1 mm incision was made along the linea alba. 500 μL of spheres were then loaded into a sterile pipette and implanted into the intraperitoneal (IP) space. The incision was then closed using 5-0 PDS II absorbable sutures, and the skin was closed using wound clips and VetBond tissue glue. […] For macrophage depletion, clodrosomes (200 μL/mouse) (Encapsula NanoSciences, Nashville, TN) were injected IP starting at −3 days (prior to implant day 0), and for every 7 days thereafter (on days −3, 4, and 11). […]
The test system of data set [2] is NSG-SGM3 BLT mice. To be noted: mouse, in vivo, sc.
Protocol: All wild type male immune-competent C57BL/6 mice or immunodeficient strains used for producing humanized models (described below) were ordered pathogen-free from The Jackson Laboratory (Bar Harbor, ME). Implanted mice were anesthetized with 3% isoflurane in oxygen and their abdomens were shaved and sterilized using betadine and isopropanol. Preoperatively, all mice received 0.05 mg/kg buprenorphine and 0.2 mL of 0.9% saline SC for pre-surgery analgesia and hydration.
For phase contrast imaging retrieved materials were gently washed using Krebs buffer and transferred into 35 mm petri dishes for phase contrast microscopy using an EVOS XL microscope (Advanced Microscopy Group). For bright-field imaging of retrieved materials, samples were gently washed using Krebs buffer and transferred into 35 mm petri dishes for bright-field imaging using a Leica Stereoscopic microscope.
Retrieved material-containing tissue (intraperitoneal and/or subcutaneous) was fixed overnight using 4% paraformaldehyde at 4° C. After fixation, alginate sphere or retrieved tissue samples were washed using 70% alcohol. The materials were then paraffin embedded, sectioned at 5 μm thickness and stained according to standard histological (H&E or Masson's Trichrome) methods.

Take “polydimethylsiloxane [PDMS 5 mm molded discs]”: the FBR / fibrosis entry with NSG-SGM3 BLT mice [1] is given as “fibrosis of synthetic biomaterial polymer implants was observed”.

Consider polystyrene [Polystyrene spheres], for which, in the data set with NSG-SGM3 BLT mice [1], the FBR / fibrosis entry was “fibrosis of synthetic biomaterial polymer implants was observed”. Further, in the data set with NSG-SGM3 BLT mice [2], the “fibrotic encapsulation upon retrieval” value is recorded as “prominent fibrotic encapsulation”.
